Among the data in ChEMBL document CHEMBL1129988, “4-substituted cubylcarbinylamines: a new class of mechanism-based monoamine oxidase B inactivators” (J Med Chem, 1997) are Partition ratio values, retold here.

This assay can be described thus: Partition ratio was determined.

The structures appear in SMILES notation.

`NCC12C3C4C1C1C2C3C41c1ccccc1` (stereo not drawn): the Partition ratio was determined as 277.
The value for `NCC12C3C4C5C3C1C5C42` (stereo not drawn) was 152.
Consider `NCC12C3C4C1C1C2C3C41C1CC1` (stereo not drawn), for which the Partition ratio was 536.
